Measured values: paper PMC6508677, “Identification of druggable small molecule antagonists of the Plasmodium falciparum hexose transporter PfHT and assessment of ligand access to the glucose permeation pathway via FLAG-mediated protein engineering” (PLoS ONE, 2019)
Values joined by “and” are separate entries in the source; they are usually repeats but may differ in a detail not shown here. Equal entries are not always repeated.

Tests used:
PfHT [1] = biological target: T1, PfHT (Plasmodium falciparum, UniProt Q7KWJ5); assay: ATB-BMPA photolabel binding to PfHT liposomes; design: expressed in transfected cells
T1 sequence (Q7KWJ5 1-504): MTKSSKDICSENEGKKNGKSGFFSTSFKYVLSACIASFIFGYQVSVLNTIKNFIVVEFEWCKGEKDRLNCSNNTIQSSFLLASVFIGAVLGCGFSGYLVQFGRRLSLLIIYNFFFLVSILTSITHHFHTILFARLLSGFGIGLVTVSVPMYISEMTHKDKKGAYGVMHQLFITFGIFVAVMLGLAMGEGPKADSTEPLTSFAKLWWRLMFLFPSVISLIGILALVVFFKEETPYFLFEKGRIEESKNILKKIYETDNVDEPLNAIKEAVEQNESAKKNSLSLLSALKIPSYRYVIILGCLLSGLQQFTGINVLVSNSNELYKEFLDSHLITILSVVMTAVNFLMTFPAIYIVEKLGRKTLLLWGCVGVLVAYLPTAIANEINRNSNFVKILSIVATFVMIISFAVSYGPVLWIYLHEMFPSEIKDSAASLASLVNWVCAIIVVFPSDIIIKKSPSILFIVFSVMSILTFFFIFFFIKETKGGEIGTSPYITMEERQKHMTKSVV
Experimental: WU-1 inhibitor was added to PfHT liposomes for 10 min at room temperature. Samples (final volume, 110 μl) were then incubated for 10 min at room temperature with biotinylated ATB-BMPA (50 μM final concentration) and then placed on ice prior to UV irradiation. Reactions were transferred to a 24-well low protein retention culture dish (Costar, Corning, NY) and then irradiated at room temperature 5 cm from a Green Spot UV lamp for 1 min (30 sec of light followed by 30 sec of darkness followed by 30 sec of light). Unbound ATB-BMPA was removed using a 0.5 ml Zeba Spin Column (Thermo Scientific, Rockford, IL). Samples were analyzed by immunoblot analysis using a fluorescently labeled streptavidin (LI-COR Biosciences, Lincoln, NE). The amount of PfHT protein in each sample was quantified by SDS-PAGE stained with Blue BANDIT protein stain using a BSA standard curve. The streptavidin signal was then normalized to the amount of PfHT protein.

PfHT [2] = biological target: T1, PfHT; assay: Kinetic analysis (Dixon plot) of zero-trans D-fructose uptake in HEK293PfHT cells; format: cell-based; design: expressed in transfected cells; host or cells: HEK293 (HEK293-FLIP, native hGLUT1 knocked down by shRNA)
Experimental: Glucose uptake by P. falciparum was performed essentially as described. P. falciparum strain 3D7 was cultured in 100 mm tissue culture dishes (Techno Plastic Products) in a 2% suspension of human erythrocytes and RPMI 1640 medium until reaching > 7.5% parasitemia. Cells were pelleted via centrifugation and resuspended in RPMI 1640 medium. To determine the uptake of radiolabeled glucose into the parasite, parasites were isolated from infected erythrocytes by permeablization with saponin (0.05 w/v), followed by centrifugation, aspiration of supernatant and washing of the pellet 3X with saline solution (135 mM NaCl, 2 mM KCl, 25 mM HEPES, 0.2 mM glucose and 1 mM MgCl2; pH 7.1) to remove cellular debris. WU-1 or DMSO vehicle were added to 100 μl parasites (resuspended in saline) 5 min prior to the addition of 100 μl [^14C]2-DOG (0.2- μCi/ml final concentration). 2-DG uptake was stopped after 2 min by layering the entire reaction over 300 μl of an oil mixture (5:4 mix of dibutyl phthalate / dinonyl phthalate) in Eppendorf tubes and centrifuged at 15,850 × g for 2 mins. The ratio of the estimated intracellular concentration of radiolabel relative to the extracellular concentration were calculated as described. Uptake of radiolabeled hexose into HEK293 cells was measured in glucose-free HBSS as described previously. Briefly, cells were plated at 400,000 cells/well overnight at 37°C in 24-well plates pre-treated with PEI. After 30-min incubation at 37°C in glucose-free HBSS in the presence of vehicle or increasing concentrations of compound, 2-DG uptake was measured in glucose-free HBSS for 4 min at 37°C. Cultures were washed in ice-cold 1X PBS and lysed in 0.1% Triton X-100 in 1X PBS. Radiolabeled hexose uptake was determined by liquid scintillation counting (Ultima Gold, Thermo Fisher) and normalized to total protein per well. […] Incubation times had been previously determined as being in the linear range of time-dependent radiolabeled hexose uptake (2 min for 2-DG uptake into freed parasites; 2 and 4 min for D-Frc and 2-DG uptake HEK cell lines, respectively). […]

PfHT [3] = biological target: T1, PfHT; assay: [3H]-D-glucose specific uptake into liposomes containing purified PfHT; format: biochemical; design: expressed in transfected cells; host or cells: HEK293 (HEK293-FLIP, native hGLUT1 knocked down by shRNA); details: for D-Glc - L-Glc Uptake, Ave / D-Glc - L-Glc Uptake, individual experiments: PfHT liposomes
GLUT1 Y293I = test system: GLUT1 Y293I; design: method as in PMID 8157690; details: GLUT1 Y293I vs wild type; cited from earlier work

## Cc1ccc(S(=O)(=O)CCNC(=O)c2c(-c3c(Cl)cccc3Cl)noc2C)cc1 [WU-1, 3-(2,6-dichlorophenyl)-5-methyl-N-[2-(4-methylbenzenesulfonyl)ethyl]-1,2-oxazole-4-carboxamide]
PfHT [1]; 10 μM WU-1, PfHT liposomes
  decrease of biotinylated ATB-BMPA photolabel binding to PfHT: ~ 60%
PfHT [1]; 10µM WU-1, individual samples
  ATB-BMPA labeling, Strep signal: 15.08 and 15.68 and 15.48
  ATB-BMPA labeling, Strep/Protein: 1.91 and 1.96 and 1.99
  ATB-BMPA labeling, Strep/Protein normalized to 100% Control: 40.83 and 41.46
PfHT [1]; 10µM WU-1, mean of 3
  ATB-BMPA labeling, normalized Ave: 40.69
PfHT [1]; read-out: ATB-BMPA labeling, Strep/Protein normalized to 100% Control, 10µM WU-1, individual samples
  remaining activity at 10 µM: 39.8%
PfHT [2]; Ki (Dixon plot, horizontal intercepts), zero-trans D-fructose uptake, HEK293PfHT, mean
  Ki: 4.4 ± 0.3 µM
PfHT [2]; Ki (µM) from individual Dixon lines, one value per D-fructose concentration line
  Ki: 5.32 µM and 4.25 µM and 3.83 µM and 4.22 µM
PfHT [2]; zero-trans D-fructose uptake/hexose influx by PfHT
  mode of inhibition: non-competitive inhibitor
PfHT [3]; IC50 for specific D-glucose uptake (D-glucose minus L-glucose) into PfHT liposomes, purified PfHT, zero-trans, mean
  IC50: 5.9 ± 0.8 µM
PfHT [3]; IC50 for specific D-glucose uptake into PfHT liposomes, individual experiments, Expt 1-3
  IC50: 7.34 µM and 4.58 µM and 5.92 µM
PfHT [3]; 0.001 µM WU-1
  D-Glc - L-Glc Uptake, Ave: 21.51 pmol/µg PfHT
  D-Glc - L-Glc Uptake, individual experiments: 20.93 pmol/µg PfHT and 22.42 pmol/µg PfHT and 21.19 pmol/µg PfHT
PfHT [3]; 0.625 µM WU-1
  D-Glc - L-Glc Uptake, Ave: 22.79 pmol/µg PfHT
  D-Glc - L-Glc Uptake, individual experiments: 21.85 pmol/µg PfHT and 22.43 pmol/µg PfHT and 24.08 pmol/µg PfHT
PfHT [3]; 1.25 µM WU-1
  D-Glc - L-Glc Uptake, Ave: 19.33 pmol/µg PfHT
  D-Glc - L-Glc Uptake, individual experiments: 16.67 pmol/µg PfHT and 24.18 pmol/µg PfHT and 17.15 pmol/µg PfHT
PfHT [3]; 2.5 µM WU-1
  D-Glc - L-Glc Uptake, Ave: 18.48 pmol/µg PfHT
  D-Glc - L-Glc Uptake, individual experiments: 16.28 pmol/µg PfHT and 15.54 pmol/µg PfHT and 23.61 pmol/µg PfHT
PfHT [3]; 5 µM WU-1
  D-Glc - L-Glc Uptake, Ave: 10 pmol/µg PfHT
  D-Glc - L-Glc Uptake, individual experiments: 13.49 pmol/µg PfHT and 7.15 pmol/µg PfHT and 9.35 pmol/µg PfHT
PfHT [3]; 10 µM WU-1
  D-Glc - L-Glc Uptake, Ave: 7.99 pmol/µg PfHT
  D-Glc - L-Glc Uptake, individual experiments: 7.38 pmol/µg PfHT and 9.19 pmol/µg PfHT and 7.39 pmol/µg PfHT
PfHT [3]; 20 µM WU-1
  D-Glc - L-Glc Uptake, Ave: 5.15 pmol/µg PfHT
  D-Glc - L-Glc Uptake, individual experiments: 6.58 pmol/µg PfHT and 4.82 pmol/µg PfHT and 4.04 pmol/µg PfHT
PfHT [3]; 40 µM WU-1
  D-Glc - L-Glc Uptake, Ave: 2.74 pmol/µg PfHT
  D-Glc - L-Glc Uptake, individual experiments: 3.05 pmol/µg PfHT and 1.92 pmol/µg PfHT and 3.24 pmol/µg PfHT
PfHT [3]; 80 µM WU-1
  D-Glc - L-Glc Uptake, Ave: -0.29 pmol/µg PfHT
  D-Glc - L-Glc Uptake, individual experiments: 0.605 pmol/µg PfHT and -1.53 pmol/µg PfHT and 0.06 pmol/µg PfHT
PfHT [3]; 160 µM WU-1
  D-Glc - L-Glc Uptake, Ave: -0.167 pmol/µg PfHT
  D-Glc - L-Glc Uptake, individual experiments: 0.75 pmol/µg PfHT and -0.06 pmol/µg PfHT and -1.19 pmol/µg PfHT

## C=C1[C@@H](C)[C@H]2[C@H](Cc3ccccc3)NC(=O)[C@]23OC(=O)/C=C/[C@H](O)CCC[C@@H](C)C/C=C/[C@H]3[C@@H]1O [CB, cytochalasin B]
GLUT1 Y293I
  increase of Ki by Y293I mutation: > 100 fold
